Source: US9315505B2, “Heterocyclic compounds and uses thereof” (INTELLIKINE LLC, priority 2009, dated 2016)

Key:
[1] = tested on: Balb/c splenic B cells; assay: B cell activation and proliferation assay (Alamar Blue); assay type: cell-based; conditions: Mus musculus, read-out: B cell proliferation EC50
Protocol: The ability of one or more subject compounds to inhibit B cell activation and proliferation is determined according to standard procedures known in the art. For example, an in vitro cellular proliferation assay is established that measures the metabolic activity of live cells. The assay is performed in a 96 well microtiter plate using Alamar Blue reduction. Balb/c splenic B cells are purified over a Ficoll-Paque™ PLUS gradient followed by magnetic cell separation using a MACS B cell Isolation Kit (Miletenyi). Cells are plated in 90 ul at 50,000 cells/well in B Cell Media (RPMI+10% FBS+Penn/Strep+50 uM bME+5 mM HEPES). A compound disclosed herein is diluted in B Cell Media and added in a 10 ul volume. Plates are incubated for 30 min at 37 C and 5% CO2 (0.2% DMSO final concentration). A 50 ul B cell stimulation cocktail is then added containing either 10 ug/ml LPS or 5 ug/ml F(ab′)2 Donkey anti-mouse IgM plus 2 ng/ml recombinant mouse IL4 in B Cell Media. Plates are incubated for 72 hours at 37° C. and 5% CO2. A volume of 15 uL of Alamar Blue reagent is added to each well and plates are incubated for 5 hours at 37 C and 5% CO2. Alamar Blue fluoresce is read at 560Ex/590Em, and IC50 or EC50 values are calculated using GraphPad Prism 5.

[2] = target: T1, PI3K γ (Homo sapiens, UniProt P48736); assay: In vitro IC50, PI3K γ (p110γ inhibition assay); assay type: biochemical; conditions: in vitro kinase assay
T1 construct: purchased Sigma
How it was run: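 Recombinant p110γ assayed with phosphatidylinositol (100 μg/ml) in 25 mM HEPES pH 7.4, 10 mM MgCl2, 2% DMSO; γ-32P-ATP at 10 or 100 μM, 5 min at room temperature, lipid product resolved by TLC and phosphorimaged. IC50 from 10–12 two-fold inhibitor dilutions, top typically 200 μM.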

[3] = target: T2, PI3K δ (Homo sapiens, UniProt O00329); assay: In vitro IC50, PI3K δ (p110δ/p85α inhibition assay); assay type: biochemical; conditions: in vitro kinase assay; read-out: IC50(nM) PI3K δ
T2 construct: purchased Upstate
How it was run: (§1)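 Lipid kinase reactions ran with phosphatidylinositol (100 μg/ml) in HEPES pH 7.4/MgCl2 and γ-32P-ATP at 10 or 100 μM for 5 min at room temperature, with 2% DMSO; products were separated by TLC and quantified by phosphorimager. A membrane capture format or HTRF (10 uM PIP2, 10 uM ATP, 1 h) were alternatives.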

[4] = target: T3, PI3K α (Homo sapiens, UniProt P42336); assay: In vitro IC50, PI3K α (p110α/p85α inhibition assay); assay type: biochemical; conditions: in vitro kinase assay; read-out: IC50(nM) PI3K α
T3 construct: purchased Upstate
How it was run: as §1

T1 sequence (P48736 whole entry): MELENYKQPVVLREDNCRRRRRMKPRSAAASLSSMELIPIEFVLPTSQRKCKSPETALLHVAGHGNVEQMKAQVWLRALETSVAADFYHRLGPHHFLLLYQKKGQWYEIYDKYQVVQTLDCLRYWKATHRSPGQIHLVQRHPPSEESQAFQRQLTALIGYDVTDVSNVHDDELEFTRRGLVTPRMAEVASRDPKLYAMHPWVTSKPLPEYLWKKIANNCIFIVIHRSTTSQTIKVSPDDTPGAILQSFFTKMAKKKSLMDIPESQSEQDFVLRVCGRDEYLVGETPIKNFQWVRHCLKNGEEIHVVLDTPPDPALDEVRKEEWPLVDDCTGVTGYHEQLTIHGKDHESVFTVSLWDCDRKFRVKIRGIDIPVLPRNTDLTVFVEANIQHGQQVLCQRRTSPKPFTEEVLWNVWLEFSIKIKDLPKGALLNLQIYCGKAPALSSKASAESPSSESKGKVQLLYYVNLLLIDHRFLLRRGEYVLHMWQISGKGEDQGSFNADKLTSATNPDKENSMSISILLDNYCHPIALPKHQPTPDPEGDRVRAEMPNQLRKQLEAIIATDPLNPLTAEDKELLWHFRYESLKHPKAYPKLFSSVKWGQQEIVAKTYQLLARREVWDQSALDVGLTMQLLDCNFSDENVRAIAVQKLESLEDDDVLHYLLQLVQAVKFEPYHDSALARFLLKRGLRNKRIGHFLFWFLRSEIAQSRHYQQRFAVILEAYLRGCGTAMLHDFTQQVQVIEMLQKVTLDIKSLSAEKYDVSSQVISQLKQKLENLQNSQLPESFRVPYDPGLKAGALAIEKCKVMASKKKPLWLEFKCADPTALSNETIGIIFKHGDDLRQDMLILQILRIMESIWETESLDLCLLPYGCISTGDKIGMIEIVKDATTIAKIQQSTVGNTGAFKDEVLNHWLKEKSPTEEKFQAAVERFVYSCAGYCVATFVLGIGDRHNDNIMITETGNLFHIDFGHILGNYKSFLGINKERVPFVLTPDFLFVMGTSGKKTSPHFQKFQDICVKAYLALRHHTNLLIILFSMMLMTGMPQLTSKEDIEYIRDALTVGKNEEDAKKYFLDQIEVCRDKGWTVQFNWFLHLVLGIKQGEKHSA
T3 sequence (P42336 whole entry): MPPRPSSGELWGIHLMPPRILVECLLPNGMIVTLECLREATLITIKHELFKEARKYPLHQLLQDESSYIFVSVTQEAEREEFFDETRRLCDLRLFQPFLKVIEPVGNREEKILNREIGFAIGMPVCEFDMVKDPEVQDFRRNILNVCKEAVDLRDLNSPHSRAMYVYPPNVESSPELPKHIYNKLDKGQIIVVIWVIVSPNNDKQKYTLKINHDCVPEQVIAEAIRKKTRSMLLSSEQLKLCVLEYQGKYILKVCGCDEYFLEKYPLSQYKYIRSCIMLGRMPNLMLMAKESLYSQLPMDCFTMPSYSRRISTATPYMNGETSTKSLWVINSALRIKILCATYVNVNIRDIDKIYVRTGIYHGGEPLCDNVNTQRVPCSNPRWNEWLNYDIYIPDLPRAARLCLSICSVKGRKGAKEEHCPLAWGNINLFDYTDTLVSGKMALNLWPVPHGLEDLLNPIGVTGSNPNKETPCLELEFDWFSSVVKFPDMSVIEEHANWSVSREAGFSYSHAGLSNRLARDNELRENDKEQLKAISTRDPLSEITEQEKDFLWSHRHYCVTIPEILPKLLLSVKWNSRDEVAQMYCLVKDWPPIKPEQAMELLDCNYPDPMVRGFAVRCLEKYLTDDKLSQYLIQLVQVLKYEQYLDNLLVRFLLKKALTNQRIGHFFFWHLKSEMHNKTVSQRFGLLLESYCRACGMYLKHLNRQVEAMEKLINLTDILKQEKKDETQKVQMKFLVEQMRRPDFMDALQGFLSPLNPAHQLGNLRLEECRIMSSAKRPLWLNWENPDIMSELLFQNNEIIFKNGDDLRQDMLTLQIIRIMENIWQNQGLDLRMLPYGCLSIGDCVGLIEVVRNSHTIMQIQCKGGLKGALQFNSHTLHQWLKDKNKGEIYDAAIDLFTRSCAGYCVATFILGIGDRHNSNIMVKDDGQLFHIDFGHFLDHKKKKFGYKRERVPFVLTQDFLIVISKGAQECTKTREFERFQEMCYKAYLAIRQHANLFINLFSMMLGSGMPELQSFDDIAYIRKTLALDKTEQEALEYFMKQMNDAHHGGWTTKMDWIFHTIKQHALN
T3 sequence (P27986 whole entry partner): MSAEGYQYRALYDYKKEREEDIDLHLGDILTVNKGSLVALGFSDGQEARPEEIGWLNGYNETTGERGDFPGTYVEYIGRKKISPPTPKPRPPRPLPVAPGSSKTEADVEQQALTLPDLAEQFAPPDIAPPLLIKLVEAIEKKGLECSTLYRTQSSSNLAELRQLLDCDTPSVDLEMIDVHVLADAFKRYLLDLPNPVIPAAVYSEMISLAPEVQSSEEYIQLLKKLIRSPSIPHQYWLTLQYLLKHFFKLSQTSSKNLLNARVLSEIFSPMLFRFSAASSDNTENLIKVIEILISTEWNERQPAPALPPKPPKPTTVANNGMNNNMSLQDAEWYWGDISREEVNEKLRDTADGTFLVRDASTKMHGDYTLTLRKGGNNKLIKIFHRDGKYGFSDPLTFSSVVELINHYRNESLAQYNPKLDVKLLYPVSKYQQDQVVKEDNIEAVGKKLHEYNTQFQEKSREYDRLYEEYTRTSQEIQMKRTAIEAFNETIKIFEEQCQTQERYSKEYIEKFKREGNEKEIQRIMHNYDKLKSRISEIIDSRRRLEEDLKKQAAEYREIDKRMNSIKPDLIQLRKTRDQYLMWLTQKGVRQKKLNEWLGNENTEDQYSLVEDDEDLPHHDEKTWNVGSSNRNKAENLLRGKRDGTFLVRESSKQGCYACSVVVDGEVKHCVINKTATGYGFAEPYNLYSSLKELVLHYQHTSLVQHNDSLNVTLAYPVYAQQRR
T2 sequence (O00329 whole entry): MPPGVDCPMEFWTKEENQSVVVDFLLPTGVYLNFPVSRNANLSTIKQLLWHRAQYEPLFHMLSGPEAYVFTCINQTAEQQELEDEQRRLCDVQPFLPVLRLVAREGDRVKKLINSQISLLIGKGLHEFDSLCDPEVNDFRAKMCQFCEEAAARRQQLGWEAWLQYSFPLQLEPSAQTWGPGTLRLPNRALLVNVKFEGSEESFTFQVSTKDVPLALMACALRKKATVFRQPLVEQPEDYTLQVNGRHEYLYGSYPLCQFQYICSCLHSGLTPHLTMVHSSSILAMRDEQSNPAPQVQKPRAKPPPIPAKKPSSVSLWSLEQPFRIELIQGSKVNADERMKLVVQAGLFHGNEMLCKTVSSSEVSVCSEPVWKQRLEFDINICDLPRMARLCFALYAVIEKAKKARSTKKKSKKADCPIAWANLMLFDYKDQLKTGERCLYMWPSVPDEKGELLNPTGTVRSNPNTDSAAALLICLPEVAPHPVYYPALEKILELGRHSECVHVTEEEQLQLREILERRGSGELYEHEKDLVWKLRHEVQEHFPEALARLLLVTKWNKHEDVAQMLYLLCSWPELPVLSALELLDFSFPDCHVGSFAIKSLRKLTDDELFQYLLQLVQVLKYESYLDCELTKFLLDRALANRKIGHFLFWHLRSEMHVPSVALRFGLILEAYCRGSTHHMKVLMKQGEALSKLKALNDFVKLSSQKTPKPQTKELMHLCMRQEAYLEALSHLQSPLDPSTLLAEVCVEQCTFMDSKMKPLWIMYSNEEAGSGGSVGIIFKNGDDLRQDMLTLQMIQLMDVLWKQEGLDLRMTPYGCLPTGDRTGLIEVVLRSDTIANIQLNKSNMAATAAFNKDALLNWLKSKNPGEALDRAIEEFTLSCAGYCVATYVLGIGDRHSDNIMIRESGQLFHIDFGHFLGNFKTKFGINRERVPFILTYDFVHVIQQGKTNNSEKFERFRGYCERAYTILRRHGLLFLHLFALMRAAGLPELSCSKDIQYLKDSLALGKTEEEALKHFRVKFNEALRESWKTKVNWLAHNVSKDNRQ
T2 sequence (P27986 whole entry partner): as the sequence (P27986 whole entry partner) above

IC50 [2]: > 10000 nM
IC50 [3]: < 1000 nM
IC50 [4]: > 10000 nM
Compound: CS(=O)(=O)N1CCC(Oc2nc(Cn3nc(-c4cn[nH]c4)c4c(N)ncnc43)cc3cccc(Cl)c23)CC1 [Compound 58]
EC50 [1]: < 1000 nM
